Laboratory results: ChEMBL document CHEMBL3259753, “Synthesis, structure-activity relationships and biological evaluation of dehydroandrographolide and andrographolide derivatives as novel anti-hepatitis B virus agents” (Bioorg Med Chem Lett, 2014)

Tests used:
[1] = Cytotoxicity against human HepG2.2.15 cells by MTT assay; format: cell-based, HepG2 2.2.15
[2] = Selectivity index, ratio of CC50 for human HepG2.2.15 cells to IC50 for HBV infected in human HepG2.2.15 cells assessed as inhibition of DNA replication; format: functional
Hepatitis B virus [3] = experiment: Antiviral activity against HBV infected in human HepG2.2.15 cells assessed as inhibition of hepatitis B surface antigen secretion by ELISA; format: functional, organism-based; conditions: HepG2 2.2.15
Hepatitis B virus [4] = experiment: Antiviral activity against HBV infected in human HepG2.2.15 cells assessed as inhibition of DNA replication; format: functional, organism-based; conditions: HepG2 2.2.15
[5] = Selectivity index, ratio of CC50 for human HepG2.2.15 cells to IC50 for HBV infected in human HepG2.2.15 cells assessed as inhibition of hepatitis B surface antigen secretion; format: functional
Hepatitis B virus [6] = experiment: Antiviral activity against HBV infected in human HepG2.2.15 cells assessed as inhibition of hepatitis B e antigen secretion by ELISA; format: functional, organism-based; conditions: HepG2 2.2.15
[7] = Selectivity index, ratio of CC50 for human HepG2.2.15 cells to IC50 for HBV infected in human HepG2.2.15 cells assessed as inhibition of hepatitis B e antigen secretion; format: functional

SMILES | CC50 [1] [µM] | Ratio CC50/IC50 [2] | IC50 (Hepatitis B virus [3]) [µM] | IC50 (Hepatitis B virus [4]) [µM] | Ratio CC50/IC50 [5] | IC50 (Hepatitis B virus [6]) [µM] | Ratio CC50/IC50 [7]
C[C@]1(CO)[C@H]2CC[C@@]3(CO3)[C@@H](/C=C/C3=CCOC3=O)[C@]2(C)CC[C@H]1O | 1840 | 23.6 | 1290 | 78 | 1.4 | – | –
C=C1CC[C@@H]2[C@](C)(CO)[C@H](OC(=O)c3ccco3)CC[C@@]2(C)[C@@H]1C/C=C1\C=COC1=O | 42 | 1.7 | 777 | 25.2 | – | 586 | –
C=C1CC[C@@H]2[C@](C)(COC(=O)CCC(=O)O)[C@H](OC(=O)CCC(=O)O)CC[C@@]2(C)[C@@H]1C/C=C1\C=COC1=O | 32 | – | 1160 | 47.6 | – | 243 | –
C=C1CC[C@@H]2[C@](C)(COC(=O)c3ccccc3C(=O)O)[C@H](OC(=O)c3ccccc3C(=O)O)CC[C@@]2(C)[C@@H]1C/C=C1\C=COC1=O | > 2040 | >92.8 | – | 22 | – | 218 | >9.4
C=C1CC[C@@H]2[C@](C)(COC(=O)COCC(=O)O)[C@H](OC(=O)COCC(=O)O)CC[C@@]2(C)[C@@H]1/C=C/C1=CCOC1=O | > 1930 | – | > 1930 | > 483 | – | > 1930 | –
C=C1CC[C@@H]2[C@](C)(COC(=O)c3cc(=O)c4ccccc4o3)[C@H](O)CC[C@@]2(C)[C@@H]1/C=C/C1=CCOC1=O | 171 | 4.7 | – | 36.6 | – | 177 | 1
C=C1CC[C@@H]2[C@](C)(COC(=O)c3ccco3)[C@H](O)CC[C@@]2(C)[C@@H]1C/C=C1\C=COC1=O | > 2150 | >100.5 | – | 21.4 | – | > 949 | –
C=C1CC[C@@H]2[C@](C)(C=O)[C@H](O)CC[C@@]2(C)[C@@H]1/C=C/C1=CCOC1=O | 122 | 9.1 | 1840 | 13.4 | – | 1950 | –
C=C1CC[C@@H]2[C@](C)(COC(=O)c3cccnc3)[C@H](OC(=O)c3cccnc3)CC[C@@]2(C)[C@@H]1/C=C/C1=CCOC1=O | > 1920 | – | > 1920 | > 664 | – | > 1920 | –
C=C1CC[C@@H]2[C@](C)(CO)[C@H](OC(=O)c3ccccc3)CC[C@@]2(C)[C@@H]1C/C=C1\C=COC1=O | 103 | 4.8 | 877 | 21.6 | – | 118 | –
C=C1CC[C@@H]2[C@](C)(COC(=O)c3ccccc3C(=O)O)[C@H](OC(=O)c3ccccc3C(=O)O)CC[C@@]2(C)[C@@H]1/C=C/C1=CCOC1=O | > 1620 | >15.6 | – | 104 | – | – | –
C=C1CC[C@@H]2[C@](C)(COC(=O)/C=C/c3cc(OC)c(OC)c(OC)c3)[C@H](O)CC[C@@]2(C)[C@@H]1C/C=C1\C=COC1=O | 325 | 14.6 | – | 22.3 | – | – | –
C[C@H](Cn1cnc2c(N)ncnc21)OCP(=O)(O)O [TENOFOVIR ANHYDROUS] | > 1720 | >2417.3 | 1390 | 0.71 | >1.2 | – | >1.4
C=C1CC[C@@H]2[C@](C)(COC(=O)CCCC(=O)O)[C@H](OC(=O)CCCC(=O)O)CC[C@@]2(C)[C@@H]1/C=C/C1=CCOC1=O | > 1710 | – | > 1710 | > 429 | – | > 1710 | –
C=C1CC[C@@H]2[C@](C)(COC(=O)c3ccccc3C(=O)O)[C@H](O)CC[C@@]2(C)[C@@H]1C/C=C1\C=COC1=O | 450 | 11.4 | 1320 | 39.4 | – | 293 | 1.5
C=C1CC[C@@H]2[C@](C)(COC(=O)/C=C/c3cccc(Cl)c3)[C@H](O)CC[C@@]2(C)[C@@H]1/C=C/C1=CCOC1=O | 147 | – | 207 | 136 | – | 59.8 | 2.5
C=C1CC[C@@H]2[C@](C)(COC(C)=O)[C@H](O)CC[C@@]2(C)[C@@H]1/C=C/C1=CCOC1=O | 225 | 3.2 | 565 | 69.5 | – | 2230 | –
C=C1CC[C@@H]2[C@](C)(COC(=O)c3cccs3)[C@H](OC(=O)c3cccs3)CC[C@@]2(C)[C@@H]1C/C=C1\C=COC1=O | 1370 | – | 1640 | – | – | 1220 | 1.1
C=C1CC[C@@H]2[C@](C)(CO)[C@H](OC(=O)c3cccs3)CC[C@@]2(C)[C@@H]1C/C=C1\C=COC1=O | 257 | 31.8 | 41 | 8.1 | 6.2 | > 2200 | –
